Key:
[1] = Ozone detection in indoor air on adsorbent paper strips
Procedure: One embodiment of the present invention can be a badge that contains compound 4 that may be worn by patients so their total ozone exposure can be continuously measured through the day. A proof-of-principle experiment was conducted with compound 4 and compound 1 as a comparative. A solution of compound 4 (500 nmol) in dimethylsulfoxide (DMSO) was absorbed on a piece of adsorbent paper and allowed to dry. The paper strips were stored in an office room that had two photocopiers and two laser printers. After eight hours, the paper strips were removed and placed in a vial that contained oH 7 buffer to elute the dyes. […] The deviation in these values is presumably because of photobleaching and the lack of specificity of compound 1 towards various ROS, including singlet oxygen.
Ozone detection in indoor air. FIG. 10 are photographic illustrations of results of Ozone detection tests in indoor air using the present invention. The top photograph is a Kimwipe® before placing into photocopy room for 8 hours. The bottom photographs are a Kimwipe® in buffer for absorbance and fluorescence measurement, wherein the left photograph is an indigo carmine taken in room light), and the right photograph is compound 4 taken under long-range UV lamp. One adsorbent paper (Kimwipe®) was cut into two 11×9 cm pieces. Solution A (50 μL, 500 nmol of compound 4) was added to one portion of the Kimwipe® and allowed to dry (FIG. 10, top right). Solution B (50 μL, 500 nmol of indigo carmine) was added to the other portion of the Kimwipe® and allowed to dry (FIG. 10, top left). After overnight drying in a laboratory drawer, the paper strips were moved to a poorly ventilated photocopy room (2 photocopiers and 2 laser printers) for 8 hours. The controls remained in the laboratory drawer. After 8 hours, the samples were placed into a scintillation vial, and the dyes were eluted with pH 7 buffer (6.0 mL) (˜5 min) before fluorescence and absorbance measurement. […] FIGS. 3C-D error bars were determined from the calculated mean and standard deviation (Prism 5.0a, GraphPad Software, Inc.).

[2] = Indigo carmine with various ROS; details: 12.5 μM indigo carmine
Procedure: Indigo carmine with various ROS. The ROS experiments described above were repeated using indigo carmine (Solution B, [Indigo Carmine]final=12.5 μM in all cases) in triplicate. […] FIG. 6A is the Absorbance spectrum of indigo carmine. FIG. 6B is the ROS with indigo carmine. Error bars were determined from the calculated mean and standard deviation (Prism 5.0a, GraphPad Software, Inc.).

[3] = Fluorescence spectroscopy of the compounds; type: physicochemical
Procedure: Fluorescence spectroscopy. Fluorescence spectra were recorded in a 1×1-cm disposable cuvette (VWR; catalog number 58017-880) on a Jobin Yvon FluoroMax-3 spectrometer under the control of a Windows-based PC running FluorEssence software. The samples were excited at 497 nm and the emission intensities were collected at 523 nm. All spectra were corrected for emission intensity using the manufacturer supplied photomultiplier curves.
FIGS. 4A-H illustrate absorbance and fluorescence emission of compounds 4, 7, 8, and S1, wherein fluorescence and emission spectra were measured in 0.1% DMSO in pH 7 buffer. FIG. 4A is absorbance spectrum of compound 4. FIG. 4B is Emission spectrum of compound 4. FIG. 4C is Absorbance spectrum of compound 7. FIG. 4D is Emission spectrum of compound 7. FIG. 4E is Absorbance spectrum of compound 8. FIG. 4F is Emission spectrum of compound 8. FIG. 4G is Absorbance spectrum of compound S1. FIG. 4H is Emission spectrum of compound S1.

[4] = Cytotoxicity against HeLa cells (MTS assay); type: cell-based; details: human, 2000 cells/well, 10 nM to 200 μM, read-out: 1050 (cytotoxicity)
Procedure: FIG. 4J is the cytotoxicity of compound 8 against HeLa cells seeds at a density of 2000 cells/well is a 96-well plate;
FIG. 4I is the ROS with compound 8. The experiment was performed in duplicate. Error bars were determined from the calculated mean and standard deviation (Prism 5.0a, GraphPad Software, Inc.). FIG. 4J is the cytotoxicity of compound 8 against HeLa cells seeds at a density of 2000 cells/well is a 96-well plate. Concentrations of compound 8 ranged from 10 nM to 200 μM. The assay was performed for 3 days, and the relative cell density was determined by an MTS assay (Promega CellTiter 96® AQueous Non-Radioactive Cell Proliferation Assay).

[5] = system: Human bronchial epithelial cells (BEAS-2B); experiment: Live-cell imaging of human bronchial epithelial cells; type: cell-based
Procedure: Human bronchial epithelial cells (BEAS-2B) (American Type Culture Collectin) were grown in LHC-9 medium (Invitrogen) on glass-bottomed Petri dishes (MatTek) precoated with 0.01 mg ml^−1 of human fibronectin (Invitrogen), 0.029 mg ml^−1 Vitrogen 100 (Cohesion) and 0.01 mg ml^−1 bovine serum albumin (Invitrogen) in LHC-9 medium. Immediately prior to imaging, cells were rinsed with Hank's balanced salt solution, which contained calcium and magnesium, and placed inside a temperature-controlled, airtight environmental chamber and maintained at 37° C. and 5% CO2. Images were obtained using a Nikon TE2000E-PFS (Perfect focus system) microscope equipped with a […] oil-immersion objective (Nikon, CFI PlanFluor, NA 1.3) and a fluorescien isothiocyanate longpass filter set (Chroma), a Q-Imaging SRV CCD camera (Q-imaging) and MetaMorph software (Molecular Devices). The motorized XYZ stage used was made by ASA (Eugege). Baseline images were collected before the addition of compound 8 and time-lapsed images obtained at 30 second intervals after the addition of compound 8 (250 nM). Once stage baseline had been achieved, multiple washes were carried out and the media replaced. The cells were then exposed to ozone (˜2.1 ppm) and monitored every 30 seconds for 15 minutes. Ozone was generated from medical grade oxygen (Valley Gas) via a model V1-0 ultraviolet ozonator (OREC) and analyzed with a Dasibi (Glendale) direct-reading instrument. Ozone concentrations were maintained by adjusting both the intensity of the ultraviolet light and the flow rate of oxygen. For each experiment, images were collected from six stages, with a minimum of five cells per position (a minimum of 30 cells per […]).
In another embodiment of the invention, human bronchial epitelial cells were incubated with compound 4 to determine ozone's role in cell biology. […] Based on studies why compound 4 and structurally related compounds are not fluorescent, it is believed that the hydroxymethyl group 4 may have been oxidized to give a more electron-withdrawing group, possible a carboxyl or aldehyde group, and so emit a strong fluorescence signal. To circumvent such an oxidation event, compound 8 was prepared specific for ozone. […] Once a steady baseline signal had been established and maintained for five minutes, ozone gas was generated within the airtight environmental chamber that housed the cell-culture dishes, and fluorescent signals were monitored using live-cell microscopy for approximately 15 minutes.
FIGS. 16A-H are photographs of live-cell imaging of human bronchial epithelial cells in the presence of ozone using compound 8. The left-hand panels (FIGS. A-E) are pseudocolour images that indicate the changes in emission intensity over time, and the right-hand panels show differential interference contrast images of the bronchial epithelial cells. FIG. 16A is before the addition of compound 8 (0 seconds). FIG. 16B illustrates the cell at 107 seconds that is a steady state intensity reached with compound 8 at 250 nM. FIG. 16C illustrates the cell at 326 seconds when ozone flow is started. FIG. 16D illustrates the cell at 536 seconds with the emission intensity increasing. FIG. 16E illustrates the cell at 675 seconds when emission maximum is reached. FIG. 16F illustrates the cell at 820 seconds when the cell starts to die. FIG. 16G illustrates the cell at 969 seconds where the cell emission continues to fall. FIG. 16H illustrates the cell at 1148 seconds when the ozone flow is stopped.

SMILES	decrease in absorbance at 610 nm ([1]; 500 nmol on adsorbent paper, photocopy room, eight hours)	consumption of compound 1 ([1]; correlated from decrease in absorbance at 610 nm)	decrease in absorbance at 610 nm with nearly all ROS [2]	fluorescence of the probe itself [3]	IC50 at 3 days [4]	fluorescent emissions inside the cells after ozone generation ([5]; 250 nM, ozone ~2.1 ppm, about 15 minutes)	time at which emission maximum is reached ([5]; 250 nM, ozone flow started at 326 seconds)	fluorescence inside the cells in the absence of external ozone ([5]; human bronchial epithelial cells, no external ozone)
O=C1/C(=C2\Nc3ccc(S(=O)(=O)[O-])cc3C2=O)Nc2ccc(S(=O)(=O)[O-])cc21.[Na+].[Na+] [compound 1, indigo carmine]	77%	387 nmol	11-70%					
C=CCCOc1cc2oc3cc(=O)c(Cl)cc-3c(-c3ccccc3C)c2cc1Cl [compound 8]				nearly non-fluorescent	43 µM	time-dependent increase in fluorescent emissions occurred inside the cells	675 s	remained weakly fluorescent within the cells

— US8361802B2, “Fluorescent ozone sensor” (University of Pittsburgh—Of the Commonwealth System of …, priority 2009, dated 2013)
